{"source": "patent US11760775B2", "about": "“Steroids and protein-conjugates thereof” (Regeneron Pharmaceuticals, Inc., priority 2016, dated 2023)", "key": {"[1]": {"test_system": "GR activation in 293/PRLR/GRE-Luc cells (HEK293/9xUAS-Luc2P/pBind-GR/PRLR-HA high cells)", "assay": "GR co-activator luciferase reporter cell based assay in 293/PRLR/GRE-Luc cells", "design": "species or system human", "details": "read-out: EC50 in 293/PRLR/GRE-Luc; 72 hrs of incubation", "procedure,_shortened": "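EC50 was derived from a 10-point, four-parameter logistic fit of One-Glo luminescence. The reporter is driven by Gal4UAS through GR ligand-binding domain fused to Gal4 DBD in PRLR-expressing 293 cells, after ADC internalization or free steroid exposure. Activation below 10% of the free-payload maximum counts as minimal.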"}, "[2]": {"test_system": "GR activation in 293/GRE-Luc cells (293_PBind GR/UAS-Luc)", "assay": "Luciferase reporter assay in antigen negative 293/GRE-Luc cells", "assay_type": "cell-based, human", "details": "read-out: EC50 in 293/GRE-Luc; 72 hrs of incubation; antigen negative cells"}, "[3]": {"assay": "Pharmacokinetics of 4b and 6-I in mice (blood concentration-time)", "assay_type": "in vivo, C57BL/6j mice", "details": "IP, 1 mg/Kg in male C57BL/6 mice; Mean"}, "[4]": {"test_system": "LPS-induced cytokine release (TNF-α)", "assay": "Mouse model of LPS induced cytokine release (TNF-α in plasma)", "assay_type": "in vivo, C57BL/6j mice"}, "CD11c+ splenic DCs": {"test_system": "CD11c+ splenic DCs", "assay": "Ex vivo LPS-induced cytokine production in mouse splenic CD11c+ dendritic cells", "assay_type": "cell-based, C57Bl/6 mice", "design": "TNF-a / IL-12p70 / IL-1b / IL-6 / KC-GRO: unit not given here", "method": "(§1) Supernatants were collected into 96-well round bottom tissue culture plates 24 hours post-LPS challenge and stored at −20° C. until further analysis. Cytokine concentrations in the supernatants were measured using a Pro-inflammatory Panel 1 (mouse) multiplex immunoassay kit (MesoScale Discovery, Cat #K15048D) according to manufacturer's instructions or Pro-inflammatory Panel 1 (human) multiplex immunoassay kit (MesoScale Discovery, Cat #K15049D). In brief, 50 μL/well of calibrators and samples (diluted in Diluent 1:2) were added to the plates pre-coated with capture antibodies and incubated at room temperature while shaking at 700 rpm for 2 hours. The plates were then washed 3 times with 1×PBS containing 0.05% (w/v) Tween-20, followed by the addition of 25 μL of Detection Antibody Solution diluted in Diluent 45. After 2-hour incubation at room temperature while shaking, the plates were washed 3 times, and 150 μL of 2× Read Buffer was added to each well. Electrochemiluminescence was immediately read on a MSD Spector® instrument. Data analysis was performed using GraphPad Prism™ software. Statistical significance within the groups was determined by one-way Anova with Turkey's multiple comparison post-test and standard error of mean (SEM±) calculated."}, "[5]": {"test_system": "human monocyte derived-DC", "assay": "Ex vivo LPS-induced cytokine production in human monocyte derived DCs", "assay_type": "cell-based", "design": "IL-6 / IL-8 / TNF-a / IL-12p70 / IL-1b: unit not given here", "method": "The complete-RPMI with IL4 and GM-CSF was changed every three days. […]\nas §1"}}, "note": "Several values for one entry are separate records, joined by “and”; a condition that tells them apart may be missing. Equal entries are not always repeated. Where two headings read alike, the source gives them in different places."}
{"smiles": "C[C@@H]1C[C@H]2[C@@H]3CCC4=CC(=O)C=C[C@]4(C)[C@@]3(F)[C@@H](O)C[C@]2(C)[C@@]1(O)C(=O)CO", "note": "[Dexamethasone, dexamethasone, reference compound]", "values": [{"measurement": "EC50", "setting": "[1]", "result": "< 5", "unit": "nM"}, {"measurement": "EC50", "setting": "[2]", "result": "< 5", "unit": "nM"}, {"measurement": "AUCINF", "setting": "[3]", "result": 562, "unit": "ng·h/mL"}, {"measurement": "AUClast", "setting": "[3]", "result": 545, "unit": "ng·h/mL"}, {"measurement": "Cmax", "setting": "[3]", "result": 231, "unit": "ng/mL"}, {"measurement": "Inhibition of TNF-α production", "setting": "[4]; 5 mpk ip before LPS challenge, plasma at 2 hr time point", "result": "significantly inhibit TNF-α"}, {"measurement": "TNF-a", "setting": "[4]; plasma 2 hr post LPS challenge, 5MPK ip (−2 h) prior to LPS, individual mice, listed as DEX", "result": "644.3 pg/mL and 508.5 pg/mL and 487.1 pg/mL"}, {"measurement": "IL-1b", "setting": "CD11c+ splenic DCs; 10 nM + LPS", "result": "34.76 ± 4.33"}, {"measurement": "IL-6", "setting": "CD11c+ splenic DCs; 10 nM + LPS", "result": "714.89 ± 77.13"}, {"measurement": "IL-12p70", "setting": "CD11c+ splenic DCs; 10 nM + LPS", "result": "30.41 ± 3.22"}, {"measurement": "KC-GRO", "setting": "CD11c+ splenic DCs; 10 nM + LPS", "result": "399.40 ± 49.75"}, {"measurement": "TNF-a", "setting": "CD11c+ splenic DCs; 10 nM + LPS", "result": "2496.27 ± 415.75"}, {"measurement": "LPS-induced cytokine responses in CD11c+ DCs", "setting": "CD11c+ splenic DCs; 10 nM and 100 nM for 24 hours before LPS 10 ng/mL", "result": "significantly decreased LPS-induced cytokine responses"}, {"measurement": "IL-1b", "setting": "CD11c+ splenic DCs; 10 nM, no LPS", "result": "6.299 ± 0.33"}, {"measurement": "IL-6", "setting": "CD11c+ splenic DCs; 10 nM, no LPS", "result": "98.93 ± 8.98"}, {"measurement": "IL-12p70", "setting": "CD11c+ splenic DCs; 10 nM, no LPS", "result": "8.55 ± 1.08"}, {"measurement": "KC-GRO", "setting": "CD11c+ splenic DCs; 10 nM, no LPS", "result": "75.75 ± 8.03"}, {"measurement": "TNF-a", "setting": "CD11c+ splenic DCs; 10 nM, no LPS", "result": "0 ± 0"}, {"measurement": "IL-1b", "setting": "CD11c+ splenic DCs; 100 nM + LPS", "result": "10.58 ± 0.88"}, {"measurement": "IL-6", "setting": "CD11c+ splenic DCs; 100 nM + LPS", "result": "303.48 ± 11.37"}, {"measurement": "IL-12p70", "setting": "CD11c+ splenic DCs; 100 nM + LPS", "result": "9.29 ± 3.28"}, {"measurement": "KC-GRO", "setting": "CD11c+ splenic DCs; 100 nM + LPS", "result": "233.49 ± 18.48"}, {"measurement": "TNF-a", "setting": "CD11c+ splenic DCs; 100 nM + LPS", "result": "405.49 ± 70.23"}, {"measurement": "IL-1b", "setting": "CD11c+ splenic DCs; 100 nM, no LPS", "result": "5.25 ± 0.12"}, {"measurement": "IL-6", "setting": "CD11c+ splenic DCs; 100 nM, no LPS", "result": "55.07 ± 1.76"}, {"measurement": "IL-12p70", "setting": "CD11c+ splenic DCs; 100 nM, no LPS", "result": "6.05 ± 1.13"}, {"measurement": "KC-GRO", "setting": "CD11c+ splenic DCs; 100 nM, no LPS", "result": "65.99 ± 2.75"}, {"measurement": "TNF-a", "setting": "CD11c+ splenic DCs; 100 nM, no LPS", "result": "0 ± 0"}, {"measurement": "IL-1b", "setting": "[5]", "result": "0.625 ± 0.006"}, {"measurement": "Pro-inflammatory cytokine production", "setting": "[5]; Condition 1: entire 7-day conditioning period", "result": "significantly reduced pro-inflammatory cytokine production"}, {"measurement": "IL-1b", "setting": "[5]; Condition 1, 10 nM + LPS", "result": "1.77 ± 0.11"}, {"measurement": "IL-6", "setting": "[5]; Condition 1, 10 nM + LPS", "result": "687.45 ± 2.17"}, {"measurement": "IL-8", "setting": "[5]; Condition 1, 10 nM + LPS", "result": "8789.98 ± 126.98"}, {"measurement": "IL-12p70", "setting": "[5]; Condition 1, 10 nM + LPS", "result": "4.83 ± 0.05"}, {"measurement": "TNF-a", "setting": "[5]; Condition 1, 10 nM + LPS", "result": "242.34 ± 10.75"}, {"measurement": "IL-6", "setting": "[5]; Condition 1, 10 nM, no LPS", "result": "2.68 ± 0.03"}, {"measurement": "IL-8", "setting": "[5]; Condition 1, 10 nM, no LPS", "result": "174.59 ± 0.68"}, {"measurement": "IL-12p70", "setting": "[5]; Condition 1, 10 nM, no LPS", "result": "0.65 ± 0.02"}, {"measurement": "TNF-a", "setting": "[5]; Condition 1, 10 nM, no LPS", "result": "2.32 ± 0.098"}, {"measurement": "Production of IL12p70, IL6 and TNF-α", "setting": "[5]; Condition 2: conditioning of mature monocyte-derived DCs", "result": "significantly decreased the production of IL12p70, IL6 and TNF-α"}, {"measurement": "IL-1b", "setting": "[5]; Condition 2, 10 nM + LPS", "result": "37.88 ± 1.90"}, {"measurement": "IL-6", "setting": "[5]; Condition 2, 10 nM + LPS", "result": "5747.37 ± 234.08"}, {"measurement": "IL-8", "setting": "[5]; Condition 2, 10 nM + LPS", "result": "3314.0 ± 37.86"}, {"measurement": "IL-12p70", "setting": "[5]; Condition 2, 10 nM + LPS", "result": "6.32 ± 1.69"}, {"measurement": "TNF-a", "setting": "[5]; Condition 2, 10 nM + LPS", "result": "994.92 ± 73.66"}, {"measurement": "IL-1b", "setting": "[5]; Condition 2, 10 nM, no LPS", "result": "0.611 ± 0.003"}, {"measurement": "IL-6", "setting": "[5]; Condition 2, 10 nM, no LPS", "result": "14.76 ± 0.267"}, {"measurement": "IL-8", "setting": "[5]; Condition 2, 10 nM, no LPS", "result": "288.23 ± 6.02"}, {"measurement": "IL-12p70", "setting": "[5]; Condition 2, 10 nM, no LPS", "result": "0.64 ± 0.03"}, {"measurement": "TNF-a", "setting": "[5]; Condition 2, 10 nM, no LPS", "result": "1.73 ± 0.02"}]}
